Article PMC8037784 (Cancers, 2021)
Several values for one entry are separate records, joined by “and”; a condition that tells them apart may be missing. Identical values can stand only once.

Columns and labels:
CYP3A4 = details: cited from earlier work
[1] = Organ distribution of lenvatinib in rats with or without liver RT; type: in vivo, Sprague-Dawley rats; details: rat; for concentration at 6 h: Sprague-Dawley, po, 3 mg/kg; for concentration at 6 h / Concentration of lenvatinib in spleen: 6 h after administration
Excerpt: (§1) A freely moving rat model was designed for the current study. The rats were anesthetized and immobilized on a board while undergoing computed tomography to localize the whole liver or a central area measuring 1.5 cm × 1.5 cm for the SBRT technique. For the whole liver field, the cranial margin was set 5 mm from the top of the diaphragm, and the caudal margin was set 5 mm lower than the liver margin. The whole liver was targeted for irradiation. […] Data were collected from six rats per group.
(§2) A radiation dose of 2 Gy was considered the daily conventional EBRT dose or the off-target dose around the target that received an ablation RT dose. A dose of 9 Gy was used to simulate SBRT. […] Rats were initially anesthetized with pentobarbital (50 mg/kg, i.p.) and remained anesthetized throughout the experimental period. After surgery, the rats were placed in an experimental cage and allowed to recover for 1 day.
The brain, liver, heart, spleen, lung, and kidney were collected and weighed. These collected samples were stored at −20 °C until analysis.
The thawed organ samples were homogenized in 50% aqueous acetonitrile (the ratio of sample weight and volume was 1:5), and the homogenate was centrifuged at 13,000× g for 10 min at 4 °C. The supernatant was collected, placed in brown Eppendorf tubes, and stored at −20 °C until analysis. Briefly, each organ sample (50 μL) was combined with 150 μL of IS solution (diethylstilbestrol) for protein precipitation. Finally, 20 μL of filtrate was subjected to HPLC analysis.

in vivo = experiment: in vivo; design: species or system Sprague-Dawley rats; details: Sprague-Dawley, rat, po, 3 mg/kg
Experimental: The HPLC system consisted of a chromatographic pump (LC−20AT), an online injector (SIL−20C) equipped with a 10 μL sample loop to inject the sample, and an ultraviolet detector (SPD-M20A).
as §1
as §2, with “After surgery, the rats were placed in an experimental cage and allowed to recover for 1 day.” left out
PK parameters, including the area under the concentration–time curve (AUC), clearance (CL), elimination half-life (t1/2), volume of distribution at steady state (Vss), and mean residence time (MRT), were calculated using the PK calculation software WinNonlin Standard Edition, Version 1.1 (Scientific Consulting, Apex, NC, USA) by a compartmental method.

[2] = RT2Gy concurrent with lenvatinib
[3] = RT9Gy concurrent with lenvatinib

COc1cc2nccc(Oc3ccc(NC(=O)NC4CC4)c(Cl)c3)c2cc1C(N)=O [lenvatinib, Lenvatinib]
Oxidative metabolism (CYP3A4): mediated primarily by CYP3A4
concentration at 6 h ([1]; brain, Concentration of lenvatinib in brain, 3 mg/kg p.o., RT2Gy concurrent with lenvatinib): 0 ng/mL
concentration at 6 h ([1]; brain, Concentration of lenvatinib in brain, 3 mg/kg p.o., RT2Gy followed by lenvatinib): 0 ng/mL
concentration at 6 h ([1]; brain, Concentration of lenvatinib in brain, 3 mg/kg p.o., RT9Gy concurrent with lenvatinib): 0 ng/mL
concentration at 6 h ([1]; brain, Concentration of lenvatinib in brain, 3 mg/kg p.o., RT9Gy followed by lenvatinib): 0 ng/mL
concentration at 6 h ([1]; brain, Concentration of lenvatinib in brain, 3 mg/kg p.o., lenvatinib only): 0 ng/mL
concentration at 6 h ([1]; heart, Concentration of lenvatinib in heart, 3 mg/kg p.o., RT2Gy concurrent with lenvatinib): 32 ± 40 ng/mL
concentration at 6 h ([1]; heart, Concentration of lenvatinib in heart, 3 mg/kg p.o., RT2Gy followed by lenvatinib): 74 ± 40 ng/mL
concentration at 6 h ([1]; heart, Concentration of lenvatinib in heart, 3 mg/kg p.o., RT9Gy concurrent with lenvatinib): 15 ± 40 ng/mL
concentration at 6 h ([1]; heart, Concentration of lenvatinib in heart, 3 mg/kg p.o., RT9Gy followed by lenvatinib): 78 ± 40 ng/mL
concentration at 6 h ([1]; heart, Concentration of lenvatinib in heart, 3 mg/kg p.o., lenvatinib only): 50 ± 50 ng/mL
concentration at 6 h ([1]; kidney, Concentration of lenvatinib in kidney, 3 mg/kg p.o., RT2Gy concurrent with lenvatinib): 113 ± 30 ng/mL
concentration at 6 h ([1]; kidney, Concentration of lenvatinib in kidney, 3 mg/kg p.o., RT2Gy followed by lenvatinib): 230 ± 50 ng/mL
concentration at 6 h ([1]; kidney, Concentration of lenvatinib in kidney, 3 mg/kg p.o., RT9Gy concurrent with lenvatinib): 129 ± 50 ng/mL
concentration at 6 h ([1]; kidney, Concentration of lenvatinib in kidney, 3 mg/kg p.o., RT9Gy followed by lenvatinib): 223 ± 50 ng/mL
concentration at 6 h ([1]; kidney, Concentration of lenvatinib in kidney, 3 mg/kg p.o., lenvatinib only): 175 ± 50 ng/mL
concentration at 6 h ([1]; liver, Concentration of lenvatinib in liver, 3 mg/kg p.o., RT2Gy concurrent with lenvatinib): 72 ± 60 ng/mL
concentration at 6 h ([1]; liver, Concentration of lenvatinib in liver, 3 mg/kg p.o., RT2Gy followed by lenvatinib): 158 ± 90 ng/mL
concentration at 6 h ([1]; liver, Concentration of lenvatinib in liver, 3 mg/kg p.o., RT9Gy concurrent with lenvatinib): 93 ± 50 ng/mL
concentration at 6 h ([1]; liver, Concentration of lenvatinib in liver, 3 mg/kg p.o., RT9Gy followed by lenvatinib): 161 ± 70 ng/mL
concentration at 6 h ([1]; liver, Concentration of lenvatinib in liver, 3 mg/kg p.o., lenvatinib only): 104 ± 50 ng/mL
concentration at 6 h ([1]; lung, Concentration of lenvatinib in lung, 3 mg/kg p.o., RT2Gy concurrent with lenvatinib): 33 ± 40 ng/mL
concentration at 6 h ([1]; lung, Concentration of lenvatinib in lung, 3 mg/kg p.o., RT2Gy followed by lenvatinib): 92 ± 30 ng/mL
concentration at 6 h ([1]; lung, Concentration of lenvatinib in lung, 3 mg/kg p.o., RT9Gy concurrent with lenvatinib): 42 ± 50 ng/mL
concentration at 6 h ([1]; lung, Concentration of lenvatinib in lung, 3 mg/kg p.o., RT9Gy followed by lenvatinib): 75 ± 30 ng/mL
concentration at 6 h ([1]; lung, Concentration of lenvatinib in lung, 3 mg/kg p.o., lenvatinib only): 108 ± 40 ng/mL
concentration at 6 h ([1]; spleen, Concentration of lenvatinib in spleen, 3 mg/kg p.o., RT2Gy followed by lenvatinib): 73 ± 40 ng/mL
concentration at 6 h ([1]; spleen, Concentration of lenvatinib in spleen, 3 mg/kg p.o., RT9Gy followed by lenvatinib): 60 ± 60 ng/mL
concentration at 6 h ([1]; spleen, Concentration of lenvatinib in spleen, 3 mg/kg p.o., lenvatinib only): 30 ± 50 ng/mL
Concentration of lenvatinib in spleen ([1]; 3 mg/kg p.o., RT2Gy concurrent with lenvatinib): 0 ng/mL
Concentration of lenvatinib in spleen ([1]; 3 mg/kg p.o., RT9Gy concurrent with lenvatinib): 0 ng/mL
Detection of lenvatinib in the brain ([1]; 3 mg/kg p.o., with or without RT): not detected
Heart concentration decreased compared with the sham group [1, 2]: 36.0%
Kidney concentration decreased compared with the sham group [1, 2]: 35.4%
Liver concentration decreased compared with the sham group [1, 2]: 30.8%
Lung concentration decreased compared with the sham group [1, 2]: 69.4%
Spleen concentration decreased compared with the sham group [1, 2]: 100.0%
Heart concentration increased compared with the sham group ([1]; RT2Gy followed by lenvatinib): 48.0%
Kidney concentration increased compared with the sham group ([1]; RT2Gy followed by lenvatinib): 31.4%
Liver concentration increased compared with the sham group ([1]; RT2Gy followed by lenvatinib): 51.9%
Lung concentration decreased compared with the sham group ([1]; RT2Gy followed by lenvatinib): 15% and 14.8%
Spleen concentration increased compared with the sham group ([1]; RT2Gy followed by lenvatinib): 143.3%
Heart concentration decreased compared with the sham group [1, 3]: 70.0%
Kidney concentration decreased compared with the sham group [1, 3]: 26.2%
Liver concentration decreased compared with the sham group [1, 3]: 10.6%
Lung concentration decreased compared with the sham group [1, 3]: 61.1%
Spleen concentration decreased compared with the sham group [1, 3]: 100%
Heart concentration increased compared with the sham group ([1]; RT9Gy followed by lenvatinib): 56.0%
Kidney concentration increased compared with the sham group ([1]; RT9Gy followed by lenvatinib): 27.4%
Liver concentration increased compared with the sham group ([1]; RT9Gy followed by lenvatinib): 54.8%
Lung concentration decreased compared with the sham group ([1]; RT9Gy followed by lenvatinib): 31% and 30.6%
Spleen concentration increased compared with the sham group ([1]; RT9Gy followed by lenvatinib): 100%
Increase of concentration in the heart ([1]; sequential RT regimen): 50%
Increase of concentration in the kidneys ([1]; sequential RT regimen): 30%
Increase of concentration in the liver ([1]; sequential RT regimen): 50%
Increase of concentration in the spleen ([1]; sequential regimen): more than 100%
concentration at 60 min (in vivo): 940 ng/mL
